Each structure is given as a SMILES string.

One experiment has as its target T1, FGFR1 (Homo sapiens, UniProt P11362).
T1 construct: kinase domain
Kind of experiment: FRET-based in vitro kinase assay (Z'-LYTE); radiometric kinase panel gave […] inhibition at […]. The experiment is classed as biochemical.

The next experiment has as its target FGFR2 (Homo sapiens, UniProt P21802). Kind of experiment: in vitro kinase assay; radiometric kinase panel gave […] inhibition at […]. The class given is biochemical.

Sequence of FGFR2 (P21802 22-821): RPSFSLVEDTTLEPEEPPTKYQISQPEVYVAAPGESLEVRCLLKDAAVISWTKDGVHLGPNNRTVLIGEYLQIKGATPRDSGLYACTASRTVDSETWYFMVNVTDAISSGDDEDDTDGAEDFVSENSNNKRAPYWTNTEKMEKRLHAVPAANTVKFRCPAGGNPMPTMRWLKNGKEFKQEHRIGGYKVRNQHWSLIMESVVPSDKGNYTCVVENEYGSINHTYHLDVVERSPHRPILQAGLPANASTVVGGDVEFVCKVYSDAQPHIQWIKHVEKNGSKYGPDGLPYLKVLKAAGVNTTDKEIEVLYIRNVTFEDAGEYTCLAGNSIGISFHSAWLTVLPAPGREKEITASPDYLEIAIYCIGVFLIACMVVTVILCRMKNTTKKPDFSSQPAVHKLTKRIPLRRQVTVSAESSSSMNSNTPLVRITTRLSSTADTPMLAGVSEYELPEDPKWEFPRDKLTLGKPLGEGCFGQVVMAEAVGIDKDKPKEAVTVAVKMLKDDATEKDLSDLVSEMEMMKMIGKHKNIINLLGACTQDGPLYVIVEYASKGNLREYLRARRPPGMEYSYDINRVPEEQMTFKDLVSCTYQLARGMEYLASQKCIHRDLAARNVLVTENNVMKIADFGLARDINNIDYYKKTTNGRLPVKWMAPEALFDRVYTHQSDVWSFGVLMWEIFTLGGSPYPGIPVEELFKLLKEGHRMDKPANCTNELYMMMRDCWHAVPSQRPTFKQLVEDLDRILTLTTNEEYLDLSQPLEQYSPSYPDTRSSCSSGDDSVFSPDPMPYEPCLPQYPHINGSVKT
T1 sequence (P11362 478-767 limits assumed): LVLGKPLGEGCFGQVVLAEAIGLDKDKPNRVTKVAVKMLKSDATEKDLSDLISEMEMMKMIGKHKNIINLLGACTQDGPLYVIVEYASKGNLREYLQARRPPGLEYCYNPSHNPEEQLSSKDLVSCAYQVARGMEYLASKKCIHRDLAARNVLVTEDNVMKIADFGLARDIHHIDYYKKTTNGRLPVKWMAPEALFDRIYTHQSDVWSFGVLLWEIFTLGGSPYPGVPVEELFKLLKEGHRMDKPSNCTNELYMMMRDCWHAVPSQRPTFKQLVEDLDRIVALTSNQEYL

With `COc1cc(/C=C/C(=O)O)ccc1O` [FA, 4-hydroxy-3-methoxycinnamic acid], the concentration for half-maximal inhibition (IC50) was approximately 3.78 µM on FGFR1 and approximately 12.5 µM against FGFR2.

In general, IC50 refers to the concentration at which inhibition is half-maximal. Read a low IC50 as higher potency.

The values are drawn from article PMC4632735, “Ferulic Acid Exerts Anti-Angiogenic and Anti-Tumor Activity by Targeting Fibroblast Growth Factor Receptor 1-Mediated Angiogenesis” (International Journal of Molecular Sciences, 2015).
